Here are results for three molecules from US12233043B1, “Method of transdermal delivery of cannabinoid compositions” (Florida A&M University, priority 2022, dated 2025).

Read-outs that look alike come from different tables or passages of the source.

Data set [1] can be described thus: In-vitro skin permeation study (IVPT), Franz diffusion cells. In kind it is in vitro ADME, Human. As to conditions: for cumulative drug permeation: end of 72 hrs. As for the experimental part: In-Vitro Skin Permeation Study
The in-vitro permeation and deposition studies were performed under occlusive conditions using jacketed Franz diffusion cells with a 0.636 cm2 permeation area and 5 mL receptor chamber volume. Human skin used was obtained from The New York Fire Fighter's skin bank and originated from the right and left posterior leg regions. Dermatomed, cryopressed split thickness skin with epidermis and dermis were delivered in plastic bags and stored at −80° C. until further use.
Skin was thawed in water for 45 minutes and was cut into small pieces and mounted on Franz cells. Receptor medium containing PBS with 25% (v/v) ethanol and 5% (v/v) Tween 80 was used for the IVPT study. 0.01% (w/v) sodium azide was added in the receiving media and sonicated for 20 mins to degasify it. To ensure the absence of bubbles in the receptor chamber, each cell was turned upside down to allow release of air though the sampling port. The cells were then left to equilibrate for about 10 mins before application of hydrogel samples. To begin the permeation experiment, 0.2 mL samples of each formulation was pipetted onto the donor compartment. The donor compartment of each cell was sealed with parafilm and perforated with a needle and the fastened to the receiving compartment using a clamp. Following the completion of the experimental setup, the Franz diffusion cells were blanketed to prevent photo-degradation of samples and the system kept at 32.3° C. with the use of its circulating water bath to maintain the skin surface temperature of 32° C. throughout the duration of the experiment. A 72 hr experimentation duration was employed with sampling times set at 24 hr increments. 1 mL samples were withdrawn from the receptor chamber via the sampling port and analyzed by HPLC, and the entire remaining receiving media in the receptor chamber was discarded and replaced with a fresh batch. The cumulative amount of drug permeated through the skin per unit area (Qp) was calculated from drug concentration in the receptor fluid and plotted as a function of time. The steady-state flux (J) was determined as the slope of the linear portion of the plot.

Data set [2] in a line: Pre-formulation solubility of CBD, THCV and CBG in solvents. In kind it is physicochemical. As for the experimental part: Pre-Formulation Studies: Solubility of CBD, THCV and CBG
The solubility of APIs including CBD, CBG and THCV was determined in various solvents including dimethyl sulfoxide (DMSO), N-Methyl-2-pyrrolidone (NMP), and PEG 400. Briefly, 100 mg of each API was dissolved in 0.5 ml of DMSO, NMP, PEG400 and vortexed until it dissolved completely. All the solutions were then visually observed for any undissolved particles. Further, all the solubility samples were centrifuged, and the supernatant were collected. Samples were then analyzed using HPLC for the amount of drug solubilized in each solvent.

The subject of data set [3] is carrageenan-induced paw edema. The data set can be described thus: Carrageenan-induced acute inflammatory (paw edema) model. The format is in vivo, Sprague Dawley (SD) rats. To be noted: as compared to control (no treatment). As for the experimental part:
Carrageenan-Induced Acute Inflammatory Model
The anti-inflammatory effect of the gel formulations was assessed using carrageenan-induced paw edema model (Whiteley and Dalrymple 1998, Lee and Crosby 1999, Sammons, Raval et al. 2000, Cong, Khaziakhmetova et al. 2015) using Sprague Dawley (SD) rats. This model was deduced suitable for the evaluation of anti-inflammatory and anti-hyperalgesic drugs (Whiteley and Dalrymple 1998, Lee and Crosby 1999, Sammons, Raval et al. 2000, Cong, Khaziakhmetova et al. 2015). Edema was induced in male Sprague Dawley (SD) rats by sub-plantar injection of 50 μL of 0.1% λ-carrageenan (22049 SIGMA λ-Carrageenan plant-mucopolysaccharide, Sigma-Aldrich) gel in nuclease free water into the left hind paw of the animals. The inventors evaluated the intensity, development, and duration of the induced inflammation by measurements of rat paw volume using a digital plethysmometer (LE 7500, Panlab, Harvard Apparatus). Measurements were made prior to edema induction (base-line volume) and at 1, 2, 4, 6, 8, 12, and 24 hrs after sub-plantar carrageenan injection. The intensity of inflammation was assessed by calculating the percentage of increase in paw volume against the base-line measurements. Animals were divided into 4 groups of 4 rats each; group 1: control (no treatment); group 2: CBD gel (Gel A); group 3: CBG gel (Gel I); and group 4: THCV gel (Gel J). […] Therefore, placebo gels were not considered in the study.

For data set [4] the following is noted: solution in propylene glycol, water and ethanol, Stinchcomb et al 2004, cited from earlier work.
Setting [5] is: in DMSO, NMP, PEG 400 and lactic acid.

`CCCc1cc(O)c2c(c1)OC(C)(C)[C@@H]1CCC(C)=C[C@@H]21` [THCV, Tetrahydrocannabivarin]: the drug permeation result in data set [1] (24 hours post administration) is listed as “at least 843 g/cm^2”. For the same molecule, the cumulative drug permeation entry in data set [1] (human skin, gel 10% w/w) is given as “at least 2124 μg/cm^2”. Besides, in data set [2] (setting [5]), the solubility entry is on record as “high solubility”. Moreover, in data set [3], the paw edema result was “significantly (p<0.0001) reduced”.
As for `C=C(C)[C@@H]1CCC(C)=C[C@H]1c1c(O)cc(CCCCC)cc1O` [CBD, Cannabidiol, reference compound], the solubility result in data set [2] (setting [5]) is “high solubility”. For the same molecule, the “cumulative amount of CBD permeation” value in data set [4] (end of 48 hrs) was about 78.61 µg. In addition, in data set [4] (48 hrs IVPT), the maximum flux is recorded as about 1.47 μg/cm^2/hr. In addition, the paw edema entry in data set [3] was “significantly (p<0.0001) reduced”.
On to `CCCCCc1cc(O)c(C/C=C(\C)CCC=C(C)C)c(O)c1` [CBG, Cannabigerol], for which the “cumulative drug permeated in the receiving media” value in data set [1] (24 hrs, human skin, gel 10% w/w) is given as “at least 136 μg/cm^2”. In addition, the cumulative drug permeation entry in data set [1] (human skin, gel 10% w/w) is recorded as “at least 321 μg/cm^2”. Besides, the solubility entry in data set [2] is “high solubility”. In addition, the paw edema entry in data set [3] is “significantly (p<0.0001) reduced”.
